Experimental data taken from patent US11046699B2, “Pyrazolo-pyrimidin-amino-cycloalkyl compounds and their therapeutic uses” (RAPT THERAPEUTICS, INC., priority 2018, dated 2021).

Target: GCN2 (Homo sapiens, UniProt Q9P2K8)
Experiment: GCN2 enzymatic endpoint assay: phosphorylation of GFP-eIF2α measured by TR-FRET (Lanthascreen)
Format: biochemical
Conditions: tested as described in Example 77; compound and/or hydrochloride, dihydrochloride or trifluoroacetic acid salt; read-out: IC 50 Activity
Method in brief: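 Phosphorylated eIF2α read by Lanthascreen TR-FRET (acceptor 520 nm over donor 495 nm) after EDTA stop. The reaction ran 90 min at room temperature on 80 nM GFP-eIF2α with 2 μM ATP.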

Sequence of GCN2 (Q9P2K8 whole entry): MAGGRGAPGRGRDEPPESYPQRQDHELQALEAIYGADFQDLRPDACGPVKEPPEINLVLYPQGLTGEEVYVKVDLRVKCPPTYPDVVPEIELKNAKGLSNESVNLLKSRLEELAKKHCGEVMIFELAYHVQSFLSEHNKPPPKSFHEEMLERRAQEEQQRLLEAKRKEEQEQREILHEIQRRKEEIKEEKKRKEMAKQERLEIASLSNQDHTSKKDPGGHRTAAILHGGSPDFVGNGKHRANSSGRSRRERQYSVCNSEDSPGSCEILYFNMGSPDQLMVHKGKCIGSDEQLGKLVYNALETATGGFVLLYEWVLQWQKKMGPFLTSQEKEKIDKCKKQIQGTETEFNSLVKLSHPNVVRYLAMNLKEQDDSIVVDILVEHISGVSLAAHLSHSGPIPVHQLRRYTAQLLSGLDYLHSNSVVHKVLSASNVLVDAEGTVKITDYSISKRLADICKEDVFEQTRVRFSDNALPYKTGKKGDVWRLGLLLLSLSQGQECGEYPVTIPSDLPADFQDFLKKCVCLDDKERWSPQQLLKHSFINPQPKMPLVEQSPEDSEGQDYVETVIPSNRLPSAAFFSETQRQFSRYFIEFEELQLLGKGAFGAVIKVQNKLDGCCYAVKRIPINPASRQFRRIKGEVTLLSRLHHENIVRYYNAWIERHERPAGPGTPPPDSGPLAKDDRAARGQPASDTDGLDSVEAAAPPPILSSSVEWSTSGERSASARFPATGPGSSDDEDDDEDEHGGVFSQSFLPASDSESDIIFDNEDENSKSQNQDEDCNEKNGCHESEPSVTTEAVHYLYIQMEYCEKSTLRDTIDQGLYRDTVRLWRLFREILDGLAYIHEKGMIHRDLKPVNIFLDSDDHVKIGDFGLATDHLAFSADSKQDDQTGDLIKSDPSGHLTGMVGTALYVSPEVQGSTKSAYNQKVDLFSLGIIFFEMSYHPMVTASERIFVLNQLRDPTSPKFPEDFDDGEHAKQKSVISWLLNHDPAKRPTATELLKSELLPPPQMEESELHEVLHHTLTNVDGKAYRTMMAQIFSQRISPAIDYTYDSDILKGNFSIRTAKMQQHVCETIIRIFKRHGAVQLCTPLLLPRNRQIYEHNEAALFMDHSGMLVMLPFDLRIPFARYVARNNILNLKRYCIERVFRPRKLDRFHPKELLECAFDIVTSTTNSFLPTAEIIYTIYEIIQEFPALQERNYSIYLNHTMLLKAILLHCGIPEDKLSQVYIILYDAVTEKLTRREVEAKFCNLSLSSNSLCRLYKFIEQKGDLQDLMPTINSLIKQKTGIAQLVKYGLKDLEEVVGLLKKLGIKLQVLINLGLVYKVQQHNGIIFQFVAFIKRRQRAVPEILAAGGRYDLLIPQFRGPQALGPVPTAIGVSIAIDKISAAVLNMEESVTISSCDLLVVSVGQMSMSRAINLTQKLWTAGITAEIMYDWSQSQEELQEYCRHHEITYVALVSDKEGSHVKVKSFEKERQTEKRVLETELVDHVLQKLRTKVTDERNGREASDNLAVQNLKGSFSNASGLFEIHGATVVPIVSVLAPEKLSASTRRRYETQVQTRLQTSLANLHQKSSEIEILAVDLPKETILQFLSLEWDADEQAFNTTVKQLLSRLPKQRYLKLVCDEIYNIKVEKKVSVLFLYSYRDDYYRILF

| Compound | IC50 [nM] |
| --- | --- |
| O=C(NC[C@@H]1COCCN1)[C@@H]1CC[C@@H](Nc2ncc3c(Br)nn(-c4ccc5ncccc5c4)c3n2)C1 [(1R,3R)-3-((3-bromo-1-(quinolin-6-yl)-1H-pyrazolo[3,4-d]pyrimidin-6-yl)amino)-N-(((R)-morpholin-3-yl)methyl)cyclopentane-1-carboxamide] | 200 to 500 |
| Cc1nnc(-c2ccc(-n3nc(Br)c4cnc(N[C@@H]5CCC[C@@H](P(C)(C)=O)C5)nc43)cc2)s1 [3-bromo-N-[(1R,3R)-3-dimethylphosphoryl-cyclohexyl]-1-[4-(5-methyl-1,3,4-thiadiazol-2-yl)phenyl]pyrazolo[3,4-d]pyrimidin-6-amine] | 25 to 200 |
| CNC(=O)[C@]1(C)CC[C@@H](Nc2ncc3c(Br)nn(-c4ccc5ncn(CCN)c(=O)c5c4)c3n2)C1 | 25 to 200 |
| CNC(=O)[C@]1(C)CC[C@@H](Nc2ncc3c(Br)nn(-c4ccc5c(c4)NC(=O)COC5)c3n2)C1 [(1R,3R)-3-[[3-bromo-1-(2-oxo-1,5-dihydro-4,1-benzoxazepin-8-yl)pyrazolo[3,4-d]pyrimidin-6-yl]amino]-N,1-dimethyl-cyclopentanecarboxamide] | 25 to 200 |
| COCCNC(=O)[C@@H]1CC[C@@H](Nc2ncc3c(Br)nn(-c4ccc5cn[nH]c5c4)c3n2)C1 [(1R,3R)-3-((3-bromo-1-(1H-indazol-6-yl)-1H-pyrazolo[3,4-d]pyrimidin-6-yl)amino)-N-(2-methoxyethyl)cyclopentane-1-carboxamide] | 500 to 1000 |
| CNC(=O)[C@]1(COC)CC[C@@H](Nc2ncc3c(I)nn(-c4cc(F)c5ncccc5c4)c3n2)C1 [(1R,3R)-3-[[1-(8-fluoro-6-quinolyl)-3-iodo-pyrazolo[3,4-d]pyrimidin-6-yl]amino]-1-(methoxymethyl)-N-methyl-cyclopentane-carboxamide] | < 25 |
| CNC(=O)[C@]1(C)CC[C@@H](Nc2ncc3c(Br)nn(-c4cc(Cl)cc([C@H](C)N(C)C)c4)c3n2)C1 | 25 to 200 |
| O=C(N[C@@H]1CCOC1)[C@@H]1CC[C@@H](Nc2ncc3c(Br)nn(-c4cc(Cl)c5ncccc5c4)c3n2)C1 [(1R,3R)-3-((3-bromo-1-(8-chloroquinolin-6-yl)-1H-pyrazolo[3,4-d]pyrimidin-6-yl)amino)-N-((R)-tetrahydrofuran-3-yl)cyclopentane-1-carboxamide] | < 25 |
| CNC(=O)[C@]1(C)CC[C@@H](Nc2ncc3c(Br)nn(-c4ccc5ncn(CCO)c(=O)c5c4)c3n2)C1 | 25 to 200 |
| CNC(=O)[C@]1(C)CC[C@@H](Nc2ncc3c(Br)nn(-c4cc(F)c5nc(C)ccc5c4)c3n2)C1 [(1R,3R)-3-[[3-bromo-1-(8-fluoro-2-methyl-6-quinolyl)pyrazolo[3,4-d]pyrimidin-6-yl]amino]-N,1-dimethyl-cyclopentane-carboxamide] | < 25 |
| C[C@H]1C(=O)N(C)CCN1C(=O)[C@@H]1CC[C@@H](Nc2ncc3c(Br)nn(-c4cc(C#N)c5ncccc5c4)c3n2)C1 [6-(3-bromo-6-(((1R,3R)-3-((S)-2,4-dimethyl-3-oxopiperazine-1-carbonyl)cyclopentyl)amino)-1H-pyrazolo[3,4-d]pyrimidin-1-yl) quinoline-8-carbonitrile] | < 25 |
| CNC(=O)[C@]1(C)CC[C@@H](Nc2ncc3c(Br)nn(-c4ccc(-c5nnc(C(C)(C)O)o5)cc4)c3n2)C1 [(1R,3R)-3-[[3-bromo-1-[4-[5-(1-hydroxy-1-methyl-ethyl)-1,3,4-oxadiazol-2-yl]phenyl]pyrazolo[3,4-d]pyrimidin-6-yl]amino]-N,1-dimethyl-cyclopentanecarboxamide] | 25 to 200 |
| CC(C)NC(=O)[C@]1(C)CC[C@@H](Nc2ncc3c(Br)nn(-c4cc(F)c5ncccc5c4)c3n2)C1 [(1R,3R)-3-[[3-bromo-1-(8-fluoro-6-quinolyl)pyrazolo[3,4-d]pyrimidin-6-yl]amino]-N-isopropyl-1-methyl-cyclopentanecarboxamide] | < 25 |
| CNC(=O)[C@]1(C)CC[C@@H](Nc2ncc3c(Br)nn(-c4cc(Br)cc(C(C)O)c4)c3n2)C1 (some centres unmarked) | 25 to 200 |
| CNC(=O)C1(C)CC[C@@H](Nc2ncc3c(Br)nn(-c4cc(OC(F)(F)F)cc(C(C)O)c4)c3n2)C1 (stereo partly drawn) [(3R)-3-[[3-bromo-1-[3-(1-hydroxyethyl)-5-(trifluoromethoxy)phenyl]pyrazolo [3,4-d]pyrimidin-6-yl]amino]-N,1-dimethyl-cyclopentanecarboxamide] | 25 to 200 |
| O=C([C@@H]1CC[C@@H](Nc2ncc3c(Br)nn(-c4cc(F)c5ncccc5c4)c3n2)C1)N1CCN2C(=O)COCC2C1 (stereo partly drawn) [8-((1R,3R)-3-((3-bromo-1-(8-fluoroquinolin-6-yl)-1H-pyrazolo[3,4-d]pyrimidin-6-yl)amino)cyclopentane-1-carbonyl)hexahydropyrazino [2,1-c][1,4]oxazin-4(3H)-one] | 25 to 200 |

| Compound | IC50 [nM] |
| --- | --- |
| CNC(=O)[C@]1(C)CC[C@@H](Nc2ncc3c(Br)nn(-c4ccc5c(c4)CS(=O)(=O)C5)c3n2)C1 [(1R,3R)-3-[[3-bromo-1-(2,2-dioxo-1,3-dihydro-2-benzothiophen-5-yl)pyrazolo[3,4-d]pyrimidin-6-yl]amino]-N,1-dimethyl-cyclopentanecarboxamide] | 25 to 200 |
| CNC(=O)[C@]1(C)CC[C@@H](Nc2ncc3c(Br)nn(-c4cc(N5CCNCC5)c5ncccc5c4)c3n2)C1 | 25 to 200 |
| CNC(=O)[C@]1(C)CC[C@@H](Nc2ncc3c(Br)nn(-c4ccc(-c5ccn(C)n5)cc4)c3n2)C1 [(1R,3R)-3-[[3-bromo-1-[4-(1-methyl-pyrazol-3-yl)phenyl]pyrazolo[3,4-d]pyrimidin-6-yl]amino]-N,1-dimethyl-cyclopentanecarboxamide] | 25 to 200 |
| CNC(=O)[C@]1(C)CC[C@@H](Nc2ncc3c(Br)nn(-c4cc(CCN)c5nccnc5c4)c3n2)C1 [(1R,3R)-3-[[1-[8-(2-aminoethyl)quinoxalin-6-yl]-3-bromo-pyrazolo[3,4-d]pyrimidin-6-yl]amino]-N,1-dimethyl-cyclopentane-carboxamide] | 25 to 200 |
| CNC(=O)C1(C)CC[C@@H](Nc2ncc3c(Br)nn(-c4ccc(-c5cnccn5)cc4)c3n2)C1 (stereo partly drawn) [(3R)-3-[[3-bromo-1-(4-pyrazin-2-ylphenyl)pyrazolo[3,4-d]pyrimidin-6-yl]amino]-N,1-dimethyl-cyclopentanecarboxamide] | 25 to 200 |
| C[C@H](N)c1cc(Cl)cc(-n2nc(Br)c3cnc(N[C@@H]4CC[C@@](C)(C(=O)NCC(F)F)C4)nc32)c1 [(1R,3R)-3-[[1-[3-[(1S)-1-aminoethyl]-5-chloro-phenyl]-3-bromo-pyrazolo[3,4-d]pyrimidin-6-yl]amino]-N-(2,2-difluoro-ethyl)-1-methyl-cyclopentanecarboxamide] | 25 to 200 |
| CNC(=O)[C@]1(C)CC[C@@H](Nc2ncc3c(Br)nn(-c4ccc(-n5nccn5)cc4)c3n2)C1 [(1R,3R)-3-[[3-bromo-1-[4-(triazol-2-yl)phenyl]pyrazolo[3,4-d]pyrimidin-6-yl]amino]-N,1-dimethyl-cyclopentane-carboxamide] | 25 to 200 |
| COc1ccc(-n2nc(Br)c3cnc(N[C@@H]4CC[C@@H](C(=O)N5CCN(C)C(=O)C5)C4)nc32)cc1C#N [5-(3-bromo-6-(((1R,3R)-3-(4-methyl-3-oxo-piperazine-1-carbonyl)cyclopentyl)amino)-1H-pyrazolo[3,4-d]pyrimidin-1-yl)-2-methoxybenzonitrile] | 200 to 500 |
| CNC(=O)[C@]1(C)CC[C@@H](Nc2ncc3c(Br)nn(-c4ccc(-c5ncco5)c(OCC5CNC5)c4)c3n2)C1 [(1R,3R)-3-[[1-[3-(azetidin-3-ylmethoxy)-4-oxazol-2-yl-phenyl]-3-bromo-pyrazolo [3,4-d]pyrimidin-6-yl]amino]-N,1-dimethyl-cyclopentanecarboxamide] | 25 to 200 |
| O=C(NCCOC(F)(F)F)[C@@H]1CC[C@@H](Nc2ncc3c(Br)nn(-c4ccc5ncccc5c4)c3n2)C1 [(1R,3R)-3-((3-bromo-1-(quinolin-6-yl)-1H-pyrazolo[3,4-d]pyrimidin-6-yl)amino)-N-(2-(trifluoromethoxy)ethyl)cyclopentane-1-carboxamide] | 200 to 500 |
| CC(C)N(CC(N)=O)C(=O)[C@@H]1CC[C@@H](Nc2ncc3c(Br)nn(-c4cc(F)c5ncccc5c4)c3n2)C1 [(1R,3R)-N-(2-amino-2-oxoethyl)-3-((3-bromo-1-(8-fluoroquinolin-6-yl)-1H-pyrazolo[3,4-d]pyrimidin-6-yl)amino)-N-isopropylcyclopentane-1-carboxamide] | 25 to 200 |
| COC[C@@H](C)NC(=O)[C@@H]1CCC[C@@H](Nc2ncc3c(Br)nn(-c4ccc5ncccc5c4)c3n2)C1 [(1R,3R)-3-((3-bromo-1-(quinolin-6-yl)-1H-pyrazolo[3,4-d]pyrimidin-6-yl)amino)-N-((R)-1-methoxypropan-2-yl)cyclohexane-1-carboxamide] | 500 to 1000 |
| CNC(=O)[C@@H]1CC[C@@H](Nc2ncc3c(Br)nn(-c4ccc(-c5nnc(C)o5)cc4)c3n2)C1 [(1R,3R)-3-[[3-bromo-1-[4-(5-methyl-1,3,4-oxadiazol-2-yl)phenyl]pyrazolo[3,4-d]pyrimidin-6-yl]amino]-N-methyl-cyclopentanecarboxamide] | 25 to 200 |
| CNC(=O)[C@@H]1CC[C@@H](Nc2ncc3c(Br)nn(-c4ccn5nccc5c4)c3n2)C1 [(1R,3R)-3-[(3-bromo-1-pyrazolo[1,5-a]pyridin-5-yl-pyrazolo[3,4-d]pyrimidin-6-yl)amino]-N-methyl-cyclopentane-carboxamide] | 25 to 200 |
| O=C([C@@H]1CC[C@@H](Nc2ncc3c(Br)nn(-c4ccc5ncccc5c4)c3n2)C1)N1C2CCC1COC2 [(3-oxa-8-azabicyclo[3.2.1]octan-8-yl)((1R,3R)-3-((3-bromo-1-(quinolin-6-yl)-1H-pyrazolo [3,4-d]pyrimidin-6-yl)amino)cyclopentyl) methanone] | 25 to 200 |
| CNC(=O)[C@]1(C)CC[C@@H](Nc2ncc3c(Br)nn(-c4cc(CNS(=O)(=O)C5COC5)c5nccnc5c4)c3n2)C1 [(1R,3R)-3-[[3-bromo-1-[8-[(oxetan-3-ylsulfonylamino)methyl]quinoxalin-6-yl]pyrazolo[3,4-d]pyrimidin-6-yl]amino]-N,1-dimethyl-cyclopentane-carboxamide] | 25 to 200 |
